Measured values taken from patent publication US9108921B2, “Therapeutic compounds and compositions” (AGIOS PHARMACEUTICALS, INC, priority 2014, dated 2015).

Key:
Format in all cases: biochemical
PKR R510Q = PKR R510Q (Homo sapiens, UniProt P30613, R510Q); assay: PKR Mutant Assay, AC50 against PKR R510Q; settings: mutant PKR R510Q enzyme
Experimental: (§1) • PKR or PKR mutant enzyme solution was diluted in assay buffer. • 2 μL of test compound was added into wells first, and then 180 μL reaction mix was added. • Reactions mixture with test compound was assembled except for ADP, and plates were stored for 60 minutes at room temperature. • 20 uL ADP was added to start reaction at room temperature and reaction progress was measured as changes in absorbance at 340 nm wavelength at room temperature.
(§2) Test Compound Preparation: • Test compound stock was made at 100× concentration in 100% DMSO (10 mM) • 1 to 3 dilutions were made for 11 points (i.e. 50 μl of first concentration added to 100 μl 100% DMSO to yield 3.33 mM, 50 μl of this added to 100 μl DMSO to yield 1.11 mM, and so forth) • 1 to 100 dilution into assay (2 μl in 200 μl) yielded starting concentration of 100 μM, decreasing 3 fold for 11 points. Assay Buffer: 100 mM KCl, 50 mM Tris 7.5, 5 mM MgCl2, 1 mM DTT, 0.03% BSA Reaction Mixture: PKR mutant enzyme: 80-400 ng/well; ADP: 0.22-1.65 mM; PEP: 0.1-0.5 mM; NADH: 180 uM; LDH: 0.5 units (Sigma#59023); DTT: 1 mM; BSA: 0.03%.

PKR R532W = PKR R532W (Homo sapiens, UniProt P30613, R532W); assay: PKR Mutant Assay, AC50 against PKR R532W; settings: mutant PKR R532W enzyme
Experimental: as §1, §2

PKR WT = PKR WT (Homo sapiens, UniProt P30613); assay: PKR WT enzymatic AC50 assay; settings: wild type PKR
Experimental: as §1, §2

Chain of PKR WT (P30613 whole entry): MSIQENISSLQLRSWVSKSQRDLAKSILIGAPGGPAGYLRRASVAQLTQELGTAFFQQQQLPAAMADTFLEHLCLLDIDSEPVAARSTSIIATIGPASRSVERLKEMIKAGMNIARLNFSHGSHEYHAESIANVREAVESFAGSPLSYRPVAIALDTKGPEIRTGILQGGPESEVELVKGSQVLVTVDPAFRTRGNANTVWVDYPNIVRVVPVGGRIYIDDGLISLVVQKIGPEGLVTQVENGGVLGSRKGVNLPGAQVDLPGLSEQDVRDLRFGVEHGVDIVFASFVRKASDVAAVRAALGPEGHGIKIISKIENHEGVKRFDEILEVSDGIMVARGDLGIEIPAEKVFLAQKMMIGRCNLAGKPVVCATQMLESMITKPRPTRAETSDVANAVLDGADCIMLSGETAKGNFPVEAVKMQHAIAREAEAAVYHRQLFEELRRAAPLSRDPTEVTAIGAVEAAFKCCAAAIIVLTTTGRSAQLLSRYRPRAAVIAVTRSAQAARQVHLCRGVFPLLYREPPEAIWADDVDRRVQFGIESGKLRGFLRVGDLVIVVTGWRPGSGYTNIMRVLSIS
Chain of PKR R510Q (P30613 whole entry R510Q): as the sequence (P30613 whole entry) above, with R510Q counted along it
Chain of PKR R532W (P30613 whole entry R532W): as the sequence (P30613 whole entry) above, with R532W counted along it

Row | AC50 (PKR R510Q) [nM] | AC50 (PKR R532W) [nM] | AC50 (PKR WT) [nM] | Compound
1 | 1010 to 10000 | 1010 to 10000 | 1010 to 10000 | O=C(c1ccc(NS(=O)(=O)c2ccccc2C(F)(F)F)cc1)N1CCC(O)(Cc2ccccc2)CC1 [Compound 297]
2 | > 10000 | 1010 to 10000 | 1010 to 10000 | CC1(O)CCN(C(=O)c2ccc(NS(=O)(=O)c3cccc4cccnc34)cc2)CC1 [Compound 296]
3 | 1010 to 10000 | 101 to 1000 | 101 to 1000 | N#Cc1ccc(C2(O)CCN(C(=O)c3ccc(NS(=O)(=O)c4cccc5cccnc45)cc3)CC2)cc1 [Compound 255, N-[4-[4-(4-cyanophenyl)-4-hydroxy-piperidine-1-carbonyl]phenyl]quinoline-8-sulfonamide]
4 | 1010 to 10000 | 101 to 1000 | 101 to 1000 | O=C(c1cc(F)c(NS(=O)(=O)c2cccc3cccnc23)cc1F)N1CCC(O)(c2ccccc2)CC1 [Compound 290]
5 | 1010 to 10000 | 101 to 1000 | 101 to 1000 | CC(O)CC1(O)CCN(C(=O)c2ccc(NS(=O)(=O)c3cccc4cccnc34)cc2)CC1 (stereo not drawn) [Compound 275]
6 | 101 to 1000 | 101 to 1000 | 101 to 1000 | O=C(c1c(F)cc(NS(=O)(=O)c2cccc3cccnc23)cc1F)N1CCC(O)(c2ccccc2Cl)CC1 [Compound 232, N-(4-(4-(2-chlorophenyl)-4-hydroxypiperidine-1-carbonyl)-3,5-difluorophenyl)quinoline-8-sulfonamide]
7 | 1010 to 10000 | 101 to 1000 | 101 to 1000 | O=C(c1ccc(NS(=O)(=O)c2cccc3nc(F)ccc23)cc1)N1CCC(O)(c2ccccc2Cl)CC1 [Compound 259, N-(4-(4-(2-chlorophenyl)-4-hydroxypiperidine-1-carbonyl)phenyl)-2-fluoroquinoline-5-sulfonamide]
8 | 101 to 1000 | 101 to 1000 | 101 to 1000 | Cc1nc2c(S(=O)(=O)Nc3ccc(C(=O)N4CCC(O)(CC(C)C)CC4)cc3)cccc2o1 [Compound 384, N-(4-(4-hydroxy-4-isobutylpiperidine-1-carbonyl)phenyl)-2-methylbenzo[d]oxazole-4-sulfonamide]
9 | – | > 10000 | > 10000 | O=C(c1ccc(NS(=O)(=O)c2ccc(C(F)(F)F)cc2)cc1)N1CCC(O)(Cc2ccccc2)CC1 [Compound 321]
10 | > 10000 | 1010 to 10000 | 1010 to 10000 | COc1nc(C(=O)N2CCC(O)(c3ccccc3)CC2)ccc1NS(=O)(=O)c1cccc2cccnc12 [Compound 304]
11 | 1010 to 10000 | 101 to 1000 | – | CC(C)CC1(O)CCN(C(=O)c2ccc(NS(=O)(=O)c3cccc4cncnc34)cc2)CC1 [Compound 441]
12 | – | – | > 10000 | N#Cc1cccc(S(=O)(=O)Nc2ccc(C(=O)N3CCC(O)(Cc4ccccc4)CC3)cc2)c1 [Compound 317]
13 | – | > 10000 | 1010 to 10000 | CC(C)CC1(O)CCN(C(=O)c2ccc(NS(=O)(=O)c3cnc(O)c4cccnc34)cc2)CC1 [Compound 416]

Further lines, the molecule ahead of its results:

Row | Compound | AC50 (PKR R510Q) [nM] | AC50 (PKR R532W) [nM] | AC50 (PKR WT) [nM]
14 | CC(C)(O)CCC1(O)CCN(C(=O)c2ccc(NS(=O)(=O)c3cccc4cccnc34)cc2)CC1 [Compound 292] | 1010 to 10000 | 1010 to 10000 | 101 to 1000
15 | O=C(c1ccc(NS(=O)(=O)c2cccc3ccnnc23)cc1)N1CCC(O)(c2ccccc2Cl)CC1 [Compound 313] | > 10000 | > 10000 | 1010 to 10000
16 | CC(F)(F)CC1(O)CCN(C(=O)c2ccc(NS(=O)(=O)c3cccc4scnc34)cc2)CC1 [Compound 413] | 101 to 1000 | 101 to 1000 | 101 to 1000
17 | Cc1cccc(C2(O)CCN(C(=O)c3ccc(NS(=O)(=O)c4cccc5cccnc45)cc3)CC2)n1 [Compound 265, N-[4-[4-hydroxy-4-(6-methylpyridin-2-yl)piperidine-1-carbonyl]phenyl]quinoline-8-sulfonamide] | 1010 to 10000 | 101 to 1000 | 101 to 1000
18 | O=C(c1ccc(NS(=O)(=O)c2cccc3ncccc23)cc1)N1CCC(O)(c2ccccc2)CC1 [Compound 300] | > 10000 | 1010 to 10000 | 1010 to 10000
19 | O=C(c1ccc(NS(=O)(=O)c2cccc3cnccc23)cc1)N1CCC(O)(c2ccccc2)CC1 [Compound 319] | – | > 10000 | > 10000
20 | CN(C)CC1(O)CCN(C(=O)c2ccc(NS(=O)(=O)c3cccc4cccnc34)cc2)CC1 [Compound 301] | – | 1010 to 10000 | 1010 to 10000
21 | O=C(c1ccc(NS(=O)(=O)c2cccc3cccnc23)cc1)N1CCC(O)(c2cccc(F)n2)CC1 [Compound 286] | 1010 to 10000 | 101 to 1000 | 101 to 1000
22 | O=C(c1ccc(NS(=O)(=O)c2cccc3scnc23)cc1)N1CCC(O)(CCC(F)(F)F)CC1 [Compound 233, N-(4-(4-hydroxy-4-(3,3,3-trifluoropropyl)piperidine-1-carbonyl)phenyl)benzo[d]thiazole-4-sulfonamide] | 101 to 1000 | 101 to 1000 | 101 to 1000
23 | CC(C)CC1(O)CCN(C(=O)c2ccc(NS(=O)(=O)c3ccc(F)c(N)c3N)cc2)CC1 [Compound 254, 2,3-diamino-4-fluoro-N-(4-(4-hydroxy-4-isobutylpiperidine-1-carbonyl)phenyl)benzenesulfonamide] | 101 to 1000 | 101 to 1000 | 101 to 1000
24 | CC(C)CC1(O)CCN(C(=O)c2ccc(NS(=O)(=O)c3cccc4csnc34)cc2)CC1 [Compound 257] | 1010 to 10000 | 101 to 1000 | 101 to 1000
25 | O=C(c1ccc(NS(=O)(=O)c2cccc3cccnc23)cc1)N1CCC(O)(CN2CCCC2)CC1 [Compound 327] | – | 1010 to 10000 | –
26 | O=C(c1ccc(NS(=O)(=O)c2cccc3cccnc23)cc1)N1CCC(O)(/C=C/C(F)F)CC1 [Compound 200] | 101 to 1000 | 101 to 1000 | < 100
27 | O=C(c1ncc(NS(=O)(=O)c2cccc3cccnc23)cn1)N1CCC(O)(c2ccccc2)CC1 [Compound 323] | – | – | > 10000
28 | O=C(c1ccc(NS(=O)(=O)c2cccc(Cl)c2)cc1)N1CCC(O)(Cc2ccccc2)CC1 [Compound 281] | – | 101 to 1000 | 101 to 1000
29 | CC(F)(F)CCC1(O)CCN(C(=O)c2ccc(NS(=O)(=O)c3cccc4scnc34)cc2)CC1 [Compound 440] | 101 to 1000 | 101 to 1000 | –
30 | O=C(c1ccc(NS(=O)(=O)c2cccc3nonc23)cc1)N1CCC(O)(Cc2ccccc2)CC1 [Compound 310] | – | 1010 to 10000 | 1010 to 10000
31 | O=C(c1ccc(NS(=O)(=O)c2ccc(Cl)cc2)cc1)N1CCC(O)(Cc2ccccc2)CC1 [Compound 299] | – | – | 1010 to 10000
32 | CC(C)CC1(O)CCN(C(=O)c2ccc(NS(=O)(=O)c3cccc4snnc34)cc2)CC1 [Compound 419] | – | > 10000 | > 10000
33 | CCOC(=O)C1(Cc2ccccc2)CCN(C(=O)c2ccc(NS(=O)(=O)c3cccc4cccnc34)cc2)CC1 [Compound 330] | 1010 to 10000 | 101 to 1000 | –
34 | O=C(c1ccc(NS(=O)(=O)c2cccc(C(F)(F)F)c2)cc1)N1CCC(O)(Cc2ccccc2)CC1 [Compound 287] | – | 1010 to 10000 | 101 to 1000
35 | O=C(c1ccc(NS(=O)(=O)c2cccnc2)cc1)N1CCC(O)(Cc2ccccc2)CC1 [Compound 315] | – | > 10000 | 1010 to 10000
36 | O=C(c1ccc(NS(=O)(=O)c2ccc3c(c2)OCO3)cc1)N1CCC(O)(Cc2ccccc2)CC1 [Compound 288] | – | 1010 to 10000 | 101 to 1000
